Results from patent US8093389B2, “Substituted spirochromanone derivatives” (Merck Sharp & Dohme Corp., priority 2007, dated 2012).
Counter-ions that a name gives are not always drawn.

Legend:
human ACC1 = human ACC1 (Homo sapiens, UniProt Q13085); assay: Acetyl CoA carboxylase (ACC) activity inhibition test, human ACC1; assay type: biochemical; conditions: 1 μmol/liter test compound; read-out: Inhibition (%) by 1 μmol/liter Chemical, human ACC1
Experimental: (§1) A. Pharmacological Test Example (Acetyl CoA Carboxylase (ACC) Activity Inhibition Test)
(§2) A test compound is dissolved in dimethyl sulfoxide (DMSO) to a concentration of 10 mM and then diluted with DMSO to give a 100-fold concentrated solution of the compound compared with target assay concentration. The ACC enzyme activity inhibition test is carried out according to a modification of Thampy & Wakil's method (J. Biol. Chem., Vol. 260, pp. 6318-6323 (1985)). Concretely, 0.8 μl of the diluted test compound is added to each well of 96-well assay plate (Perkin Elmer Opti Plate), then 40 μl of a substrate solution (50 mM Hepes sodium (pH 7.5), 2 mM DTT, 10 mM ATP, 500 μM acetyl CoA, 0.17 mM NaH[^14C]O3 (58 mCi/mmol, by Amersham), 8 mM NaHCO3) is added to each well, and 40 μL of an enzyme solution (1 to 2 nM human ACC1 or human ACC2, 50 mM Hepes sodium (pH 7.5), 2 mM DTT, 40 mM MgCl2, 40 mM tripotassium citrate 1 mg/ml fetal bovine serum albumin) is added thereto. Then, the upper side of the plate is sealed up, and the plate is incubated with gently stirring at 37° C. for 40 minutes. Next, 20 μl of 1 N HCl is added to each well to stop the enzyme reaction, and the assay plate is stirred overnight to remove the unreacted NaH[^14C]O3. Next, 100 μl of a scintillator (Perkin Elmer's Microscinti 40) is added to each well and the plate is stirred, then the radioactivity of the fixed [^14C] is counted using a microplate scintillation counter (Perkin Elmer's Topcount), the radioactivity of which represents the enzyme activity in each well. The human ACC1 and human ACC2 enzyme-inhibition activities of the test compounds are calculated, based on the radioactivity of the well added by DMSO without test compound as a control.

human ACC2 = human ACC2 (Homo sapiens, UniProt O00763); assay: Acetyl CoA carboxylase (ACC) activity inhibition test, human ACC2; assay type: biochemical; conditions: 1 μmol/liter test compound; read-out: Inhibition (%) by 1 μmol/liter Chemical, human ACC2
human ACC2, sequence (O00763 whole entry): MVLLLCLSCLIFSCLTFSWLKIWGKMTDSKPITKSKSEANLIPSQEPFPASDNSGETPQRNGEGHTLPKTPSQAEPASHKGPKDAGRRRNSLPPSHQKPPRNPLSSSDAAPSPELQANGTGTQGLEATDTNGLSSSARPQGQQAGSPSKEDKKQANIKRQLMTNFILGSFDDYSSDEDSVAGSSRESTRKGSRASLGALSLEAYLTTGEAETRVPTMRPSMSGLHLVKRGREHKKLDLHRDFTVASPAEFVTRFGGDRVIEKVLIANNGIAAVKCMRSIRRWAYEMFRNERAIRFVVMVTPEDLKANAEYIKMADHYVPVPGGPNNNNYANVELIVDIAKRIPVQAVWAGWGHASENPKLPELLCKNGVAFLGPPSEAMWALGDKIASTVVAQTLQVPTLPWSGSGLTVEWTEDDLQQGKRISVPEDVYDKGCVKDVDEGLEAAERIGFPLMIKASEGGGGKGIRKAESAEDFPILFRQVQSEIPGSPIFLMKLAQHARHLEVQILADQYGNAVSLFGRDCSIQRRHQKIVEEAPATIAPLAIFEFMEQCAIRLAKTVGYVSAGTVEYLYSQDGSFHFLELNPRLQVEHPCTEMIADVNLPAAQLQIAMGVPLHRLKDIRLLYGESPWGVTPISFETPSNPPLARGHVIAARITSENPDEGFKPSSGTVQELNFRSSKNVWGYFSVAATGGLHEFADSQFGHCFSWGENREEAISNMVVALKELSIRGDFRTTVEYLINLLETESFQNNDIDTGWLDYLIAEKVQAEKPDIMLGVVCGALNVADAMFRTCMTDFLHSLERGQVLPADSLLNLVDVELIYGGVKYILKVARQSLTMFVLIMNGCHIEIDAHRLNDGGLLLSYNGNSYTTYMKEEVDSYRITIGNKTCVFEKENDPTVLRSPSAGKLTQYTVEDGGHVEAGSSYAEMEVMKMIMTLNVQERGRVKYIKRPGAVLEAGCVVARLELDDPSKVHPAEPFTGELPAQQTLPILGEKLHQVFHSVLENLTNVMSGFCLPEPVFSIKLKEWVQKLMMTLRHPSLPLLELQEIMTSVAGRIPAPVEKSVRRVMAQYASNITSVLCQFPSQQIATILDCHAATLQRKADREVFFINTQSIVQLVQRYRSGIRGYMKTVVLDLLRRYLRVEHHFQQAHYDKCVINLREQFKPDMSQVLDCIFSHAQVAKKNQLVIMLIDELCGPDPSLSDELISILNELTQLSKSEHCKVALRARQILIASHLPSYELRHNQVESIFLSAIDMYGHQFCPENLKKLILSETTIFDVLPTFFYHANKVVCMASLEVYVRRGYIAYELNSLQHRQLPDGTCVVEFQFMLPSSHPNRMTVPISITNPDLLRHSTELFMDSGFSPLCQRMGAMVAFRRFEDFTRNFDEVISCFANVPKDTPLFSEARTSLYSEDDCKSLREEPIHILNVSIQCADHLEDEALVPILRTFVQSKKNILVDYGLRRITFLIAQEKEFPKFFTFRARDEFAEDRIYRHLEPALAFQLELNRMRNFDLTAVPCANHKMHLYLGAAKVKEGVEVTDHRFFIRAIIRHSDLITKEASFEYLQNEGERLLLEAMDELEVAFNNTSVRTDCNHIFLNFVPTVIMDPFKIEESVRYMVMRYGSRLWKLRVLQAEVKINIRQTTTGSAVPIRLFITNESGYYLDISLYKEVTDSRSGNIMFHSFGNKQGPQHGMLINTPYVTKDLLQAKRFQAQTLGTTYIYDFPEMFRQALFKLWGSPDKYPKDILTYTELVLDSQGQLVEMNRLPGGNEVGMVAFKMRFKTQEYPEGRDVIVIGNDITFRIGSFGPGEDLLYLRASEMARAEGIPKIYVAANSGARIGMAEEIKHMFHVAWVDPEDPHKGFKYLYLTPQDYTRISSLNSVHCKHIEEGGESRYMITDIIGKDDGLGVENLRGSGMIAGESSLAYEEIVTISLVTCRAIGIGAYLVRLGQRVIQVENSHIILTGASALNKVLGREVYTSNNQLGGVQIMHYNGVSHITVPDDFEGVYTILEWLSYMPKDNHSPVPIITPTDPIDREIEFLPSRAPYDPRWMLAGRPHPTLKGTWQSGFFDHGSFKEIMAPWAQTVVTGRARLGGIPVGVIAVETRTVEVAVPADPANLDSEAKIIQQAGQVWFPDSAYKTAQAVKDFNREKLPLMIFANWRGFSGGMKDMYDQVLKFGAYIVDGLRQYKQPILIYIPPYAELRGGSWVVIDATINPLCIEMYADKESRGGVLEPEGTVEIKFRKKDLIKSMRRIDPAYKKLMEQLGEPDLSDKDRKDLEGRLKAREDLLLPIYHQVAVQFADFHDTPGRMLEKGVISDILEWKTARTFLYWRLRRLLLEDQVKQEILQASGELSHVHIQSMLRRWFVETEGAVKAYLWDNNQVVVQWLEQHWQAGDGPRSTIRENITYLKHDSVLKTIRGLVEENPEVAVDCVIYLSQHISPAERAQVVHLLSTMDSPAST
Experimental: as §1, §2

| Structure (SMILES) | inhibition at 1 µM (human ACC1) [%] | inhibition at 1 µM (human ACC2) [%] |
| --- | --- | --- |
| COc1cc(C(=O)N2CCC3(CC2)CC(=O)c2cc(-c4noc(=O)[nH]4)ccc2O3)cc2c1ccn2C1CC1 [Example 3, 1′-[(1-Cyclopropyl-4-methoxy-1H-indol-6-yl)carbonyl]-6-(5-oxo-4,5-dihydro-1,2,4-oxadiazol-3-yl)spiro[chroman-2,4′-piperidin]-4-one] | 100 | 97 |
| COc1cc(C(=O)N2CCC3(CC2)CC(=O)c2cc(-c4cccc(C(=O)O)c4)ccc2O3)cc2c1ccn2C1CC1 [Example 5, Sodium 3-{1′-[(1-cyclopropyl-4-methoxy-1H-indol-6-yl)carbonyl]-4-oxospiro[chroman-2,4′-piperidin]-6-yl}benzoate] | 99 | 99 |
| COc1cc(C(=O)N2CCC3(CC2)CC(=O)c2cc(-c4cncc(C(=O)O)c4)ccc2O3)cc2c1ccn2C1CC1 [Example 7, 5-{1′-[(1-Cyclopropyl-4-methoxy-1H-indol-6-yl)carbonyl]-4-oxospiro[chroman-2,4′-piperidin]-6-yl}nicotinic acid sodium salt] | 100 | 99 |
| CCn1ncc2c(OC)cc(C(=O)N3CCC4(CC3)CC(=O)c3cc(-c5nnn[nH]5)ccc3O4)cc21 [Example 10, 1′-[(1-Ethyl-4-methoxy-1H-indazol-6-yl)carbonyl]-6-(1H-tetrazol-5-yl)spiro[chroman-2,4′-piperidin]-4-one] | 93 | 96 |
| COc1cc(C(=O)N2CCC3(CC2)CC(=O)c2cc(-c4nnn[nH]4)ccc2O3)cc2c1ccn2C1CC1 [Example 11, 1′-[(1-Cyclopropyl-4-methoxy-1H-indol-6-yl)carbonyl]-6-(1H-tetrazol-5-yl)spiro[chroman-2,4′-piperidin]-4-one] | 99 | 98 |
| CCOc1cc(C(=O)N2CCC3(CC2)CC(=O)c2cc(-c4nnn[nH]4)ccc2O3)cc2c1ccn2C1CC1 [Example 13, 1′-[(1-Cyclopropyl-4-ethoxy-1H-indol-6-yl)carbonyl]-6-(1H-tetrazol-5-yl)spiro[chroman-2,4′-piperidin]-4-one] | 100 | 99 |
| CCOc1cc(C(=O)N2CCC3(CC2)CC(=O)c2cc(-c4nnn[nH]4)ccc2O3)cc2c1c(C)cn2C1CC1 [Example 17, 1′-[(1-Cyclopropyl-4-ethoxy-3-methyl-1H-indol-6-yl)carbonyl]-6-(1H-tetrazol-5-yl)spiro[chroman-2,4′-piperidin]-4-one] | 98 | 99 |
| COc1cc(C(=O)N2CCC3(CC2)CC(=O)c2cc(-c4cncc(C(=O)O)c4)ccc2O3)cc2c1c(C)cn2C1CC1 [Example 23, 5-{1′-[(1-Cyclopropyl-4-methoxy-3-methyl-1H-indol-6-yl)carbonyl]-4-oxo-spiro[chroman-2,4′-piperidin]-6-yl}nicotinic acid sodium salt] | 99 | 98 |
| COc1cc(C(=O)N2CCC3(CC2)CC(=O)c2cc(-c4cncc(C(=O)O)c4)ccc2O3)cc2c1c(Cl)cn2C1CC1 [Example 24, 5-{1′-[(3-Chloro-1-cyclopropyl-4-methoxy-1H-indol-6-yl)carbonyl]-4-oxo-spiro[chroman-2,4′-piperidin]-6-yl}nicotinic acid sodium salt] | 99 | 100 |
| CCOc1cc(C(=O)N2CCC3(CC2)CC(=O)c2cc(-c4nnn[nH]4)ccc2O3)cc2c(C3CC3)noc12 [Example 31, 1′-[(3-cyclopropyl-7-ethoxy-1,2-benzisoxazol-5-yl)carbonyl]-6-(1H-tetrazol-5-yl)spiro[chroman-2,4′-piperidin]-4-one] | 97 | 98 |
| O=C1CC2(CCN(C(=O)c3cc(OCCO)c4ccn(C5CC5)c4c3)CC2)Oc2ccc(-c3nnn[nH]3)cc21 [Example 36] | 99 | 99 |
| CCOc1cc(C(=O)N2CCC3(CC2)CC(=O)c2cc(-c4cncc(C(=O)O)c4)ccc2O3)cc2c1c(C)cn2C1CC1 [Example 45, 5-{1′-[(1-cyclopropyl-4-ethoxy-3-methyl-1H-indol-6-yl)carbonyl]-4-oxospiro[chroman-2,4′-piperidin]-6-yl}nicotinic acid] | 100 | 100 |
| CCn1ccc2c(OC)cc(C(=O)N3CCC4(CC3)CC(=O)c3cc(-c5nnn[nH]5)ccc3O4)cc21 [Example 56, 1′-[(1-ethyl-4-methoxy-1H-indol-6-yl)carbonyl]-6-(1H-tetrazol-5-yl)spiro[chroman-2,4′-piperidin]-4-one] | 99 | 99 |

The remaining lines, values ahead:

| inhibition at 1 µM (human ACC1) [%] | inhibition at 1 µM (human ACC2) [%] | Structure (SMILES) |
| --- | --- | --- |
| 91 | 89 | CCn1cnc2c(OC)cc(C(=O)N3CCC4(CC3)CC(=O)c3cc(-c5nnn[nH]5)ccc3O4)cc21 [Example 1, 1-[(1-Ethyl-4-methoxy-1H-benzimidazol-6-yl)carbonyl]-6-(1H-tetrazol-5-yl)spiro[chroman-2,4′-piperidine]-4-one] |
| 93 | 93 | COc1cc(C(=O)N2CCC3(CC2)CC(=O)c2cc(-c4nnn[nH]4)ccc2O3)cn2c(C3CC3)cnc12 [Example 2, 1′-[(3-Cyclopropyl-8-methoxyimidazo[1,2-a]pyridin-6-yl)carbonyl]-6-(1H-tetrazol-5-yl)spiro[chroman-2,4′-piperidin]-4-one] |
| 96 | 97 | CCn1ccc2c(OCCO)cc(C(=O)N3CCC4(CC3)CC(=O)c3cc(-c5nnn[nH]5)ccc3O4)cc21 [Example 4, 1′-{[1-Ethyl-4-(2-hydroxyethoxy)-1H-indol-6-yl]carbonyl}-6-(1H-tetrazol-5-yl)spiro[chroman-2,4′-piperidin]-4-one] |
| 99 | 99 | COc1cc(C(=O)N2CCC3(CC2)CC(=O)c2cc(-c4nnn[nH]4)ccc2O3)cc2c1ccn2OC [Example 8, 1′-{[1,4-Dimethoxy-1H-indol-6-yl]carbonyl}-6-(1H-tetrazol-5-yl)spiro[chroman-2,4′-piperidin]-4-one] |
| 99 | 99 | COc1cc(C(=O)N2CCC3(CC2)CC(=O)c2cc(-c4nnc(C(N)=O)[nH]4)ccc2O3)cc2c1ccn2C1CC1 [Example 57, 5-{1′-[(1-cyclopropyl-4-methoxy-1H-indol-6-yl)carbonyl]-4-oxo-spiro[chroman-2,4′-piperidin]-6-yl}-4H-1,2,4-triazole-3-carboxamide] |
